Data set [1] has as its target Lanosterol 14-alpha demethylase (Candida glabrata (strain ATCC 2001 / BCRC 20586 / JCM 3761 / NBRC 0622 /NRRL Y-65 / CBS 138) (Yeast) (Nakaseomyces glabratus)) (UniProt P50859). As to the kind of experiment: Inhibition of CYP51 in Candida glabrata assessed as inhibition of microbe growth incubated for 48 hrs by CLSI M27-A3 guideline based method.
The target of data set [2] is T1, Cytochrome P450 11B2, mitochondrial (Homo sapiens, UniProt P19099).
T1 sequence (P19099 whole entry): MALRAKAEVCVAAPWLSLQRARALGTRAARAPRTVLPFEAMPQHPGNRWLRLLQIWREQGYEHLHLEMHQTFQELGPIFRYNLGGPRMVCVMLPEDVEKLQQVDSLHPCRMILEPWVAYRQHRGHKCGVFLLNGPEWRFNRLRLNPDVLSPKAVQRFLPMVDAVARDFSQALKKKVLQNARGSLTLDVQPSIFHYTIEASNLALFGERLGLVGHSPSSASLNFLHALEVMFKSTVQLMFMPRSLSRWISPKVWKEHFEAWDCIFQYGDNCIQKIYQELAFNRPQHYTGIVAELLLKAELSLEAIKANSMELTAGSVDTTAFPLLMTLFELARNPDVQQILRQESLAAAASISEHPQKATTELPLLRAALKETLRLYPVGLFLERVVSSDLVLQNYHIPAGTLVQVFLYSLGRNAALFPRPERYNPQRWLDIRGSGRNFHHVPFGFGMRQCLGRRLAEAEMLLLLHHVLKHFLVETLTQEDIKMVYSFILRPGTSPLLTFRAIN
As to the kind of experiment: Inhibition of CYP11B2 in human hepatocyte microsomes using deoxycorticosteroid substrate by HPLC/MS/MS method. Type of data set: ADME.

The target of data set [3] is T2, Lanosterol 14-alpha demethylase (Aspergillus) (UniProt B8NUK6+Q9P8R0+G4WW85). The experiment in a line: Inhibition of CYP51 in Aspergillus flavus assessed as inhibition of microbe growth incubated for 48 to 168 hrs by CLSI M27-A3 guideline based method.
For the next data set, the target named is T3, Aromatase (Homo sapiens, UniProt P11511).
T3 sequence (P11511 whole entry): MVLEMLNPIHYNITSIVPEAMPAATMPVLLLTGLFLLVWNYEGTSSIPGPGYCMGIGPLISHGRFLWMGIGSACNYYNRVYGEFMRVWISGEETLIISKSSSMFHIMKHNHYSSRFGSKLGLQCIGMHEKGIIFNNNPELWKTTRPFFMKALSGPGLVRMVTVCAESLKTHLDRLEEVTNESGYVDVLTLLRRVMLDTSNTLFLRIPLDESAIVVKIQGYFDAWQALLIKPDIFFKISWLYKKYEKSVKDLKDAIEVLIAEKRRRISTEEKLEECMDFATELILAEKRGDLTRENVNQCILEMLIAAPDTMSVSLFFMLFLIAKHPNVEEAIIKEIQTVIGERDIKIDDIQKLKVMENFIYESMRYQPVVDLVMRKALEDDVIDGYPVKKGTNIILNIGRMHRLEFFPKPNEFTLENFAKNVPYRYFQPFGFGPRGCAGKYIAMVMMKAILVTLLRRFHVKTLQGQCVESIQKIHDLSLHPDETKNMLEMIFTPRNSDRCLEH
The experiment in a line: Inhibition of CYP19 in human hepatocyte microsomes using testosterone substrate by HPLC/MS/MS method. Type of data set: ADME.

The target in data set [4] is T4, Steroid 17-alpha-hydroxylase/17,20 lyase (Homo sapiens, UniProt P05093).
T4 sequence (P05093 whole entry): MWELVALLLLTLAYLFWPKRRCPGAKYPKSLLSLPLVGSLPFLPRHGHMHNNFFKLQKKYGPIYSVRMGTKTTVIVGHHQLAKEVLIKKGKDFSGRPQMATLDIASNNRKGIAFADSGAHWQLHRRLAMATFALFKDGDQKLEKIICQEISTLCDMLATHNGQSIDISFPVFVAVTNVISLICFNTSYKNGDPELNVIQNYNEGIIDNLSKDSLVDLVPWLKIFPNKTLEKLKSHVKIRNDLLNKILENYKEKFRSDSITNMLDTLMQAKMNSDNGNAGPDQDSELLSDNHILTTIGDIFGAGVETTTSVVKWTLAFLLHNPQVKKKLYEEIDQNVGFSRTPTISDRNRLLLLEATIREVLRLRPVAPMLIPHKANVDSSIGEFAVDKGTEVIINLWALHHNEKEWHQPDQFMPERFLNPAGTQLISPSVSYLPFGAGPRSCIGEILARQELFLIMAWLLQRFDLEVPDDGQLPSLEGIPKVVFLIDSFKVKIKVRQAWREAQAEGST
The experiment in a line: Inhibition of CYP17 lyase in human hepatocyte microsomes using 17a-hydroxypregnenolone substrate by HPLC/MS/MS method. Type of data set: ADME.

In data set [5] the target is Lanosterol 14-alpha demethylase (Candida albicans (strain SC5314 / ATCC MYA-2876) (Yeast), UniProt P10613). The experiment in a line: Inhibition of CYP51 in Candida albicans assessed as inhibition of microbe growth incubated for 48 hrs by CLSI M27-A3 guideline based method.
Lanosterol 14-alpha demethylase, sequence (P10613 whole entry): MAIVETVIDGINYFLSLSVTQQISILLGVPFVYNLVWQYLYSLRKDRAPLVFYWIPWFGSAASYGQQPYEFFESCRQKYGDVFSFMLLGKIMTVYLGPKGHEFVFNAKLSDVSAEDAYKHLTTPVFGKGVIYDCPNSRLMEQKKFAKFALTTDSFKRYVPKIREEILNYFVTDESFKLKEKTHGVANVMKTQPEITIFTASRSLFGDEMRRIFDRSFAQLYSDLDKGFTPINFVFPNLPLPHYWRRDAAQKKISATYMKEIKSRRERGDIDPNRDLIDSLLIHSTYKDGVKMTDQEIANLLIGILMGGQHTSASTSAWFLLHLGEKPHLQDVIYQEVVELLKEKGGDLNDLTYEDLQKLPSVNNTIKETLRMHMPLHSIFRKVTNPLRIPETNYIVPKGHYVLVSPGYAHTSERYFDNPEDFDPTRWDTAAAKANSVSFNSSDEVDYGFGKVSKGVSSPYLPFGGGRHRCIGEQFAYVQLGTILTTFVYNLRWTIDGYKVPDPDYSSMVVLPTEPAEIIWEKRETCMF
Another data set relates to Cryptococcus neoformans. The experiment in a line: Inhibition of CYP51 in Cryptococcus neoformans assessed as inhibition of microbe growth incubated for 48 hrs by CLSI M27-A3 guideline based method.
Data set [6] concerns the target T5, Cytochrome P450 11B1, mitochondrial (Homo sapiens, UniProt P15538).
T5 sequence (P15538 whole entry): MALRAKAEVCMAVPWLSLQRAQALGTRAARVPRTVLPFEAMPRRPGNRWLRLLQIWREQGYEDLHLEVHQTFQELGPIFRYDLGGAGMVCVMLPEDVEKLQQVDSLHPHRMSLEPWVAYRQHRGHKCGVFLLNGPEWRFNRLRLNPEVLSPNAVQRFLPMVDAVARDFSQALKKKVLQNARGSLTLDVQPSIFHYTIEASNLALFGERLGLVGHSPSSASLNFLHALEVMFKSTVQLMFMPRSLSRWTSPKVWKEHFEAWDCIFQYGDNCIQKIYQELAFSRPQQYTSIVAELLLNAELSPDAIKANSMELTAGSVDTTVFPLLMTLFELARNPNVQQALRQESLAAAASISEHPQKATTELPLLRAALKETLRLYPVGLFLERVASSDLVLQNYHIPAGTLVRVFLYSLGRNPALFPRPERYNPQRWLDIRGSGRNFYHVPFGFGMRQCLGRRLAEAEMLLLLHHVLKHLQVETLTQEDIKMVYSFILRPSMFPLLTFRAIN
As to the kind of experiment: Inhibition of CYP11B1 in human hepatocyte microsomes using deoxycortisol substrate by HPLC/MS/MS method. Type of data set: ADME.

Data set [7] deals with T6, Lanosterol 14-alpha demethylase (Trichophyton rubrum (strain ATCC MYA-4607 / CBS 118892) (Athlete'sfoot fungus)) (UniProt F2SHH3).
T6 sequence (whole entry): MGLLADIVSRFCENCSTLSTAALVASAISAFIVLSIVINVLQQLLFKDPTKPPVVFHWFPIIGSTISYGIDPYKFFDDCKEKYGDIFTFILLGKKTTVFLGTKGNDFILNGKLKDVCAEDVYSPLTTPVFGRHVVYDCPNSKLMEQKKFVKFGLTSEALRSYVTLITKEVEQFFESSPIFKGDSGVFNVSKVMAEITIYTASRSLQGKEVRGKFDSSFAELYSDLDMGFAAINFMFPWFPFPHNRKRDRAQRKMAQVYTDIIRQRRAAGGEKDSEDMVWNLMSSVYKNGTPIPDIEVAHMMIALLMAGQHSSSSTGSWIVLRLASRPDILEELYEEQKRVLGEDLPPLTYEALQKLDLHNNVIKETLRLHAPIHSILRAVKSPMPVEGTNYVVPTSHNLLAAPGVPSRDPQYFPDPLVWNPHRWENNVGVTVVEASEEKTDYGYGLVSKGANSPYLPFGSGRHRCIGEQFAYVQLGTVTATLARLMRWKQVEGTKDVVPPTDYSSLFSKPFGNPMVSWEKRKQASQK
As to the kind of experiment: Inhibition of CYP51 in Trichophyton rubrum assessed as inhibition of microbe growth incubated for 48 hrs by CLSI M27-A3 guideline based method.

In data set [8] the target is T2, Lanosterol 14-alpha demethylase (Aspergillus). As to the kind of experiment: Inhibition of CYP51 in Aspergillus fumigatus assessed as inhibition of microbe growth incubated for 48 to 168 hrs by CLSI M27-A3 guideline based method.
Data set [9] concerns the target T4, Steroid 17-alpha-hydroxylase/17,20 lyase. The experiment in a line: Inhibition of CYP17 hydroxylase in human hepatocyte microsomes using pregnenolone substrate by HPLC/MS/MS method. Type of data set: ADME.

Lanosterol 14-alpha demethylase (Candida glabrata (strain ATCC 2001 / BCRC 20586 / JCM 3761 / NBRC 0622 /NRRL Y-65 / CBS 138) (Yeast) (Nakaseomyces glabratus)), sequence (P50859 whole entry): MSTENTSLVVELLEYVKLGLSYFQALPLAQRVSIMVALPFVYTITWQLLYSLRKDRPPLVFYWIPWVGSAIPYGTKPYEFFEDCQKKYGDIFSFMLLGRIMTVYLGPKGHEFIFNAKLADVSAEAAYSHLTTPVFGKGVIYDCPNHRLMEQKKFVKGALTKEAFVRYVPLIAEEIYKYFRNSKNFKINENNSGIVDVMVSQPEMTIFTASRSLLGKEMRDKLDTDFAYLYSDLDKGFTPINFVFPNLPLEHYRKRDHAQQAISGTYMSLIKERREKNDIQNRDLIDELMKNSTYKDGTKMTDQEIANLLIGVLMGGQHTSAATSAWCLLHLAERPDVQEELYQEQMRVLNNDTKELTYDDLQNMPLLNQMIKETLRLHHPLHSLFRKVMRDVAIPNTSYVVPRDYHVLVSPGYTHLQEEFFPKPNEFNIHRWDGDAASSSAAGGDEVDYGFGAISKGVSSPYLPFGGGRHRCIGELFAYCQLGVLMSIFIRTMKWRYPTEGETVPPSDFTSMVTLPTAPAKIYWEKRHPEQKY

As a reminder, the IC50 is the concentration at which inhibition is half-maximal. Take `CC[C@@H]([C@H](C)O)n1ncn(-c2ccc(N3CCN(c4ccc(OC[C@@H]5CO[C@@](Cn6cncn6)(c6ccc(F)cc6F)C5)cc4)CC3)cc2)c1=O` [POSACONAZOLE]: the MIC50 in data set [1] is 0.12 µg/mL; in data set [5], 0.015 µg/mL; with Cryptococcus neoformans, 0.0078 µg/mL; in [7] it was 0.25 µg/mL. For the same compound, the IC50 in data set [2] came to 0.021 µM; on Aromatase it was 8.4 µM; in [4], 0.042 µM; in data set [6], 0.31 µM; in [9], 1.8 µM. For the same compound, the MIC100 is 0.25 µg/mL in data set [3] and 0.062 µg/mL in [8].

Turning to `OC(Cn1cncn1)(Cn1cncn1)c1ccc(F)cc1F` [FLUCONAZOLE], the MIC50 is 8 µg/mL in [1], 0.5 µg/mL in data set [5], 0.25 µg/mL in the data set on Cryptococcus neoformans and 16 µg/mL in data set [7]. The IC50 in [2] is 13 µM; on Aromatase, 22 µM; in [4] it was greater than 200 µM; in [6], 30 µM; in [9], greater than 200 µM. In addition, the MIC100 in data set [3] and in data set [8] was greater than 64 µg/mL each time.
